In experiment [1] the test system is isoproterenol-induced acute myocardial ischemia. The experiment is described as follows: Electrocardiogram in the acute myocardial ischemia model in rats with ISO. It is filed as in vivo, SD rats. Conditions: for Impact on the ECG (myocardial damage): all dose groups, in words. How it is done:
(§1) 1. The acute myocardial ischemia model in rats with ISO: SD rats are selected and divided according to body weight into six groups: blank control group, model group, ZA high dose group (0.5 mg/kg iv) and ZA low dose group (0.2 mg/kg iv), OS high dose group (10 mg/kg po), OS low dose group (5 mg/kg po), with 10 rats in each group. The groups with drug administration are administered the drugs continuously for 3 days, and on the second day of drug administration, and 30 minutes after the drug administration, they are performed subcutaneous injection of ISO at a dose of 60 mg/kg; on the third day of drug administration, and 30 minutes after the drug administration, they are also performed subcutaneous injection of ISO at a dose of 60 mg/kg; on the fourth day their tissue samples such as blood and heart are collected on the fourth day.
3.1 Record the Electrocardiogram
Record the electrocardiogram of each group using standard II lead
(§2) 1. The acute myocardial ischemia model in rats with ISO: SD rats are selected and divided according to body weight into five groups: blank control group, model group, coptisine high dose group (100 mg/kg p.o.) and coptisine medium dose group 25 mg/kg p.o.), coptisine low dose group (10 mg/kg p.o.), with 10 rats in each group. The groups with drug administration are administered the drugs continuously for 3 days, and on the second day of drug administration, and 30 minutes after the drug administration, they are performed subcutaneous injection of ISO at a dose of 60 mg/kg; on the third day of drug administration, and 30 minutes after the drug administration, they are also performed subcutaneous injection of ISO at a dose of 60 mg/kg; on the fourth day their tissue samples such as blood and heart are collected on the fourth day.
3.1 Record ECG: Same as Embodiment 1.

In experiment [2] the test system is myocardial neuraminidase. As to the kind of experiment: Myocardial neuraminidase level by ELISA after isoproterenol modeling. In kind it is in vivo, SD rats. The note with it: ISO model rats; for Effect on the expression level of myocardial neuraminidase: ELISA, in words; for Neuraminidase concentration (myocardial neuraminidase expression level): 3 days. How it is done:
as §1, with “day. […]” for “day.”
3.3 Determination of Myocardial Neuraminidase Level
The level of myocardial neuraminidase in the rat is detected by […], and the detection kit is a neuraminidase detection kit, which is measured according to the instruction manual of the test kit.
as §2
3.3 Method for determination of myocardial neuraminidase level: same as in Embodiment 1.
(In an ELISA, binding on a coated surface is turned into a signal by an enzyme label.)

Experiment [3] has as its system isoproterenol-induced acute myocardial ischemia. The experiment is described as follows: Cardiac pathology (HE sections) in the acute myocardial ischemia model in rats with ISO. It is filed as in vivo, SD rats. The note with it: for Effect on myocardial cell morphology (cardiac pathological sections): all dose groups, in words. How it is done:
as §1
3.2 Observe the Cardiac Pathology
Fix the myocardial tissue of the apical site of the hearts in 10% formaldehyde solution, obtain material conventionally, perform dehydration, embedding in paraffin, and make it into sheets (4 μm thick), stain them with HE, and observe them under an optical microscope.
as §2
3.2 Observing the pathological section of the heart: same as in Embodiment 1.

Experiment [4] deals with left anterior descending coronary artery ligation model. As to the kind of experiment: Acute myocardial ischemia model in rats with left anterior descending coronary artery ligation. It is filed as in vivo, SD rats. The note with it: in words. As to the method: 2. The acute myocardial ischemia model in rats with left anterior descending coronary artery ligation: SD rats are selected and divided into 6 groups according to body weight: blank control group, model group, ZA high dose group (0.5 mg/kg iv). ZA low dose group, (0.2 mg/kg iv), OS high-dose group (10 mg/kg po) and OS low-dose group (5 mg/kg po), with 10 rats in each group. The groups with drug administration are pre-administered drugs 24 h and 12 h in advance before the rats are anesthetized with 3% chloral hydrate at 10 ml/kg, laid flat on their backs and fixed on the rat plate. Then cut them open at between left 4th and 5th ribs to open the pericardium, expose the heart, gently press the thorax to extrude the heart, find the left anterior descending coronary artery in the pulmonary artery cone and left atrium, and immediately bind the root of the left anterior descending coronary artery (pulmonary artery cone and left atrial appendage) with suture 0; push the heart back to the chest, and squeeze out the blood and gas in the chest cavity, close the chest cavity quickly, suture the skin, and the chest opening time is no more than 30 s. […]
The level of myocardial neuraminidase in the rat is detected by […], and the detection kit is a neuraminidase detection kit, which is measured according to the instruction manual of the test kit. […]

Experiment [5] relates to serum CK-MB and D-LDH. The experiment is described as follows: Serum myocardial damage indicators CK-MB and D-LDH after isoproterenol modeling. In kind it is in vivo, SD rats. Set-up: Serum CK-MB concentration: unit not given here. Conditions: ISO model rats; for Serum CK-MB concentration / Serum D-LDH concentration: 3 days. How it is done:
as §1
3.4 the Detection Method for Serum Myocardial Damage Indicator CK-MB and D-LDH
Measure CK-MB and D-LDH according to the CK-MB detection kit (Roche) and D-LDH detection kit (Invitrogen) operating instructions, respectively.
as §2
3.4 Detection method for serum myocardial damage index CK-MB and D-LDH: same as in Embodiment 1.

The test system of experiment [6] is neuraminidase. As to the kind of experiment: Inhibitory rate on neuraminidase (neuraminidase assay kit, fluorescence). In kind it is biochemical. How it is done:
3.5 Determination of the inhibitory rate of coptisine on neuraminidase
Neuraminidase activity is determined using a neuraminidase assay kit. Accurately weigh standard coptisine, and prepare 200 μM (high dose group), 100 μM (medium dose group), and 50 μM (low dose group) solution in that order. To prepare a standard curve, add 70 μl of neuraminidase assay buffer to each well in a 96-well fluorescent plate, and add 0, 1, 2, 5, 7.5 and 10 μl of neuraminidase to each well, respectively. Then add […] of Milli-Q water per well so the total volume of each well is 90 μl. To test the sample, add 70 μl of neuraminidase detection buffer to each well of a 96-well fluorescent plate, then add 10 μl of neuraminidase and 10 μl of coptisine solution in different concentrations per well. Add 0-10 μl of Milli-Q water per well so the total volume of each well is 90 After shaking for about 1 minute, incubate at 37° C. for 2 minutes so the inhibitor fully interacts with neuraminidase; then add 10 μl of neuraminidase fluorescein substrate per well, mix by shaking, incubate at 37° C. for 30 minutes and then perform fluorescence measurement at excitation wavelength 322 nm and emission wavelength of 450 nm.

Setting [7] is: oseltamivir phosphate high dose group, 10 mg/kg po.
Setting [8] is: oseltamivir phosphate low dose group, 5 mg/kg po.
Where [9] appears, read: zanamivir high dose group, 0.5 mg/kg iv.
The mark [10] stands for this setting: zanamivir low dose group, 0.2 mg/kg iv.
Setting [11] is: high dose coptisine group, 100 mg/kg p.o.
Setting [12] is: low dose coptisine group, 10 mg/kg p.o.
Setting [13] is: medium dose coptisine group, 25 mg/kg p.o.

Experimental findings from patent US10639289B2, “Application of neuraminidase and inhibitors thereof in myocardial ischemia and myocardial infarction” (CHINA PHARMACEUTICAL UNIVERSITY, priority 2016, dated 2020) are described below.

Molecules are shown by their SMILES.

As to `CCOC(=O)C1=C[C@@H](OC(CC)CC)[C@H](NC(C)=O)[C@@H](N)C1` [Oseltamivir phosphate, oseltamivir phosphate], the “Impact on the ECG (myocardial damage)” value in experiment [1] was “effectively improve myocardial damage in a dose-dependent manner”. The “Effect on the expression level of myocardial neuraminidase” value (“Effect on the expression level” for short) in experiment [2] is “effective in inhibiting the increase in neuraminidase expression induced by myocardial ischemia in a dose-dependent manner”. The “Neuraminidase concentration (myocardial neuraminidase expression level)” value in experiment [2] (setting [7]) was 16.7202 U/μL; in experiment [2] (setting [8]), 21.547 U/μL. The “Effect on myocardial cell morphology (cardiac pathological sections)” value (shortened to “Effect on myocardial cell morphology”) in experiment [3] was “effective in improving myocardial damage in a dose-dependent manner”. For the same compound, the “Electrocardiogram and cardiac pathology” value in experiment [4] was “significantly improve electrocardiogram and cardiac pathology in rats”. In addition, the “Serum CK-MB concentration” value in experiment [5] (setting [7]) stood at 2846.67; in experiment [5] (setting [8]), 2964.44. For the same compound, the “Serum D-LDH concentration” value in experiment [5] (setting [7]) turned out to be 7.208 mU/ml; in experiment [5] (setting [8]) it was 7.793 mU/ml.
As for `CC(=O)N[C@H]1[C@H]([C@H](O)[C@H](O)CO)OC(C(=O)O)=C[C@@H]1N=C(N)N` [Zanamivir, zanamivir], the “Impact on the ECG (myocardial damage)” value in experiment [1] is on record as “effectively improve myocardial damage in a dose-dependent manner”. In addition, the “Effect on the expression level” value in experiment [2] was “effective in inhibiting the increase in neuraminidase expression induced by myocardial ischemia in a dose-dependent manner”. Moreover, the “Neuraminidase concentration (myocardial neuraminidase expression level)” value is recorded as 16.9244 U/μL in experiment [2] (setting [9]) and 21.8341 U/μL in experiment [2] (setting [10]). Also, in experiment [3], the “Effect on myocardial cell morphology” value is “effective in improving myocardial damage in a dose-dependent manner”. For the same compound, the “Electrocardiogram and cardiac pathology” value in experiment [4] was “significantly improve electrocardiogram and cardiac pathology in rats”. Moreover, the entries for the “Serum CK-MB concentration” value in experiment [5] (setting [9]) and in experiment [5] (setting [10]) were 3544.44 and 3713.33, respectively. The “Serum D-LDH concentration” value in experiment [5] (setting [9]) came out at 8.383 mU/ml; in experiment [5] (setting [10]) it was 8.804 mU/ml.
Consider `c1c2c(cc3c1OCO3)-c1cc3ccc4c(c3c[n+]1CC2)OCO4` [coptisine], for which, in experiment [1], the “Impact on the ECG (myocardial damage)” value is given as “effectively improve myocardial damage in a dose-dependent manner”. In addition, the “Electrocardiogram compared with blank control group” value in experiment [1] (setting [11]) was “basically consistent with the blank control group”. Moreover, in experiment [2], the “Effect on the expression level” value is on record as “effectively inhibit the increase of neuraminidase expression induced by myocardial ischemia in a dose-dependent manner”. The “Reduction of myocardial neuraminidase expression compared with the model group” value in experiment [2] (setting [11]) was “about 40%”; in experiment [2] (setting [12]) it was “about 21%”; in experiment [2] (setting [13]), “about 29%”. The “Effect on myocardial cell morphology” value in experiment [3] is “effectively improve myocardial damage in a dose-dependent manner”. For the same compound, the Inflammatory cell infiltration result in experiment [3] (setting [11]) is “no inflammatory cell infiltration”. Also, the “Myocardial cell morphology and intercellular fissure compared with blank control group” value in experiment [3] (setting [11]) is reported as “basically consistent with the blank control group”. For the same compound, in experiment [6] (50-200 μM), the “Neuraminidase inhibition, assessment in words” value was “potent neuraminidase inhibitor”. Further, the “Inhibitory rate on neuraminidase” value in experiment [6] (coptisine concentration 50 μM) turned out to be 5.64%; in experiment [6] (coptisine concentration 100 μM), 28.69%; in experiment [6] (coptisine concentration 200 μM), 56.25%. Moreover, the entries for the “Reduction of serum CK-MB and LDH levels compared with the model group” value in experiment [5] (setting [11]), in experiment [5] (setting [12]) and in experiment [5] (setting [13]) were “about 40%”, “about 20%” and “about 30%”, respectively.
